Laboratory results published in article PMC5218480 (PLoS ONE, 2017).

System: MV-4-11 cells
Experiment: Gene expression microarray analysis (Affymetrix PrimeView) and GSEA
Type: cell-based, human
Parameters: RFU PODN (11730768_x_at) / Fold change /veh PODN (11730768_x_at) / RFU LINC00158 (11744669_a_at) / Fold change /veh LINC00158 (11744669_a_at) / RFU DUSP10 (11751237_a_at) / Fold change /veh DUSP10 (11751237_a_at) / RFU ID3 (11757404_x_at) / Fold change /veh ID3 (11757404_x_at) / RFU PLEKHG5 (11737974_s_at) / Fold change /veh PLEKHG5 (11737974_s_at) / RFU LRRC4B (11730491_at) / Fold change /veh LRRC4B (11730491_at) / RFU GIMAP4 (11747438_a_at) / Fold change /veh GIMAP4 (11747438_a_at) / RFU KRT8 (11758183_x_at) / Fold change /veh KRT8 (11758183_x_at) / RFU CNN1 (11734310_a_at) / Fold change /veh CNN1 (11734310_a_at) / RFU VPS37D (11726825_at) / Fold change /veh VPS37D (11726825_at) / RFU C10orf10 (11716522_x_at) / Fold change /veh C10orf10 (11716522_x_at) / RFU KIR2DL2 /// KIR2DL4 /// KIR2DL5A /// KIR2DL5B /// KIR2DS1 /// KIR2DS2 /// KIR2DS3 /// KIR2DS4 /// KIR3DL3 /// KIR3DL3 /// KIR3DS1 (11738374_at) / Fold change /veh KIR2DL2 /// KIR2DL4 /// KIR2DL5A /// KIR2DL5B /// KIR2DS1 /// KIR2DS2 /// KIR2DS3 /// KIR2DS4 /// KIR3DL3 /// KIR3DL3 /// KIR3DS1 (11738374_at) / RFU C1QL1 (11718748_at) / Fold change /veh C1QL1 (11718748_at) / RFU TMPRSS4 (11747572_a_at) / Fold change /veh TMPRSS4 (11747572_a_at) / RFU HAMP (11756126_x_at) / Fold change /veh HAMP (11756126_x_at) / RFU RNFT2 (11725882_a_at) / Fold change /veh RNFT2 (11725882_a_at) / RFU NR4A2 (11747474_a_at) / Fold change /veh NR4A2 (11747474_a_at) / RFU ABCC12 (11746883_a_at) / Fold change /veh ABCC12 (11746883_a_at) / RFU TMEM136 (11760407_x_at) / Fold change /veh TMEM136 (11760407_x_at) / RFU CLDN22 /// WWC2 (11732394_at) / Fold change /veh CLDN22 /// WWC2 (11732394_at) / RFU HLA-DPB1 (11760878_x_at) / Fold change /veh HLA-DPB1 (11760878_x_at) / RFU SPINT1 (11716480_a_at) / Fold change /veh SPINT1 (11716480_a_at) / RFU GAP43 (11754022_s_at) / Fold change /veh GAP43 (11754022_s_at) / RFU A4GNT (11735810_at) / Fold change /veh A4GNT (11735810_at) / RFU PRB3 (11715151_x_at) / Fold change /veh PRB3 (11715151_x_at) / RFU TUBB4B (11761932_at) / Fold change /veh TUBB4B (11761932_at) / RFU CAPN14 (11732068_a_at) / Fold change /veh CAPN14 (11732068_a_at) / RFU TMCC2 (11721928_a_at) / Fold change /veh TMCC2 (11721928_a_at) / RFU IRGQ (11745062_a_at) / Fold change /veh IRGQ (11745062_a_at) / RFU FAM174B (11720279_a_at) / Fold change /veh FAM174B (11720279_a_at) / RFU TMPRSS4 (11748680_a_at) / Fold change /veh TMPRSS4 (11748680_a_at) / RFU FAM212B (11763350_a_at) / Fold change /veh FAM212B (11763350_a_at) / RFU PLEKHG5 (11743358_a_at) / Fold change /veh PLEKHG5 (11743358_a_at) / RFU ZSCAN30 (11745921_a_at) / Fold change /veh ZSCAN30 (11745921_a_at) / RFU CMKLR1 (11741424_a_at) / Fold change /veh CMKLR1 (11741424_a_at) / RFU LOC101060620 /// MAPK8IP1 (11723275_at) / Fold change /veh LOC101060620 /// MAPK8IP1 (11723275_at) / RFU SPTSSB (11747773_x_at) / Fold change /veh SPTSSB (11747773_x_at) / RFU PRSS12 (11739890_at) / Fold change /veh PRSS12 (11739890_at) / RFU BIN1 (11741810_x_at) / Fold change /veh BIN1 (11741810_x_at) / RFU WNT11 (11732464_a_at) / Fold change /veh WNT11 (11732464_a_at) / RFU C10orf10 (11716521_a_at) / Fold change /veh C10orf10 (11716521_a_at) / RFU C5orf56 (11738089_at) / Fold change /veh C5orf56 (11738089_at) / RFU CYB561 (11721691_x_at) / Fold change /veh CYB561 (11721691_x_at) / RFU ANKRD19P (11752326_a_at) / Fold change /veh ANKRD19P (11752326_a_at) / RFU OR2T12 /// OR2T33 /// OR2T8 (11738714_s_at) / Fold change /veh OR2T12 /// OR2T33 /// OR2T8 (11738714_s_at) / RFU VCAN (11748164_a_at) / Fold change /veh VCAN (11748164_a_at) / RFU JSRP1 (11732532_at) / Fold change /veh JSRP1 (11732532_at) / RFU KRTAP10-11 (11738290_x_at) / Fold change /veh KRTAP10-11 (11738290_x_at) / RFU MYO3A (11730013_a_at) / Fold change /veh MYO3A (11730013_a_at) / RFU EBF3 (11725865_a_at) / Fold change /veh EBF3 (11725865_a_at) / RFU CAMK2N1 (11719241_x_at) / Fold change /veh CAMK2N1 (11719241_x_at) / RFU C5orf56 (11738088_a_at) / Fold change /veh C5orf56 (11738088_a_at) / RFU OLFML3 (11715873_a_at) / Fold change /veh OLFML3 (11715873_a_at) / RFU LOC100653217 /// NTM (11731650_a_at) / Fold change /veh LOC100653217 /// NTM (11731650_a_at) / RFU MAPK11 (11762145_a_at) / Fold change /veh MAPK11 (11762145_a_at) / RFU FIZ1 (11724087_x_at) / Fold change /veh FIZ1 (11724087_x_at) / RFU OASL (11726364_x_at) / Fold change /veh OASL (11726364_x_at) / RFU SOX15 (11748057_x_at) / Fold change /veh SOX15 (11748057_x_at) / RFU CD79A (11719716_a_at) / Fold change /veh CD79A (11719716_a_at) / RFU HIST1H1D (11736915_at) / Fold change /veh HIST1H1D (11736915_at) / RFU CASKIN2 (11723855_a_at) / Fold change /veh CASKIN2 (11723855_a_at) / RFU LOC730098 (11760151_x_at) / Fold change /veh LOC730098 (11760151_x_at) / RFU OR4N2 (11742367_at) / Fold change /veh OR4N2 (11742367_at) / RFU PRRT2 (11749266_a_at) / Fold change /veh PRRT2 (11749266_a_at) / RFU SNX32 (11753110_a_at) / Fold change /veh SNX32 (11753110_a_at) / RFU CDHR5 (11726645_a_at) / Fold change /veh CDHR5 (11726645_a_at) / RFU RCAN1 (11760418_a_at) / Fold change /veh RCAN1 (11760418_a_at) / RFU FAM167A (11723789_a_at) / Fold change /veh FAM167A (11723789_a_at) / RFU FAM26E (11764081_at) / Fold change /veh FAM26E (11764081_at) / RFU ISYNA1 (11749810_s_at) / Fold change /veh ISYNA1 (11749810_s_at) / RFU ACY1 (11761880_at) / Fold change /veh ACY1 (11761880_at) / RFU 11764098_at / Fold change /veh 11764098_at / RFU SAMD14 (11745864_x_at) / Fold change /veh SAMD14 (11745864_x_at) / RFU NPB (11741838_a_at) / Fold change /veh NPB (11741838_a_at) / RFU TMPRSS6 (11731388_a_at) / Fold change /veh TMPRSS6 (11731388_a_at) / RFU KRTAP10-2 (11738614_at) / Fold change /veh KRTAP10-2 (11738614_at) / RFU ARHGAP8 /// PRR5-ARHGAP8 (11727945_x_at) / Fold change /veh ARHGAP8 /// PRR5-ARHGAP8 (11727945_x_at) / RFU KRTAP5-7 /// NADSYN1 (11734609_at) / Fold change /veh KRTAP5-7 /// NADSYN1 (11734609_at) / RFU RASL12 (11751679_a_at) / Fold change /veh RASL12 (11751679_a_at) / RFU CDKN2B (11736163_a_at) / Fold change /veh CDKN2B (11736163_a_at) / RFU PRF1 (11729649_at) / Fold change /veh PRF1 (11729649_at) / RFU, ZNF638 /// ZNF638-IT1 / Fold change vs veh, ZNF638 /// ZNF638-IT1 / RFU, PANK3 / Fold change vs veh, PANK3 / RFU, SH3YL1 / Fold change vs veh, SH3YL1 / RFU, ZEB2 / Fold change vs veh, ZEB2 / RFU, NRIP1 / Fold change vs veh, NRIP1 / RFU, PTTG1IP / Fold change vs veh, PTTG1IP / RFU, CAPN2 / Fold change vs veh, CAPN2 / RFU, MED14 / Fold change vs veh, MED14 / RFU, SNORA58 / Fold change vs veh, SNORA58 / RFU, C1orf63 / Fold change vs veh, C1orf63 / RFU, LRRFIP1 / Fold change vs veh, LRRFIP1 / RFU, NDUFAF7 / Fold change vs veh, NDUFAF7 / RFU, SLC12A2 / Fold change vs veh, SLC12A2 / RFU, IBTK / Fold change vs veh, IBTK / RFU, ESF1 / Fold change vs veh, ESF1 / Fold change vs veh, TMEM50B / RFU, TAOK1 / Fold change vs veh, TAOK1 / RFU, ACBD3 / Fold change vs veh, ACBD3 / RFU, TMA16 / Fold change vs veh, TMA16 / RFU, RWDD3 / Fold change vs veh, RWDD3 / RFU, BCAT1 / Fold change vs veh, BCAT1 / RFU, EDEM3 / Fold change vs veh, EDEM3 / RFU, TMEM33 / Fold change vs veh, TMEM33 / RFU, WDR75 / Fold change vs veh, WDR75 / RFU, AHCTF1 / Fold change vs veh, AHCTF1 / RFU, TFRC / Fold change vs veh, TFRC / RFU, ZDHHC17 / Fold change vs veh, ZDHHC17 / RFU, NOM1 / Fold change vs veh, NOM1 / RFU, ARL8B / Fold change vs veh, ARL8B / RFU, ZBTB11 / Fold change vs veh, ZBTB11 / RFU, TAMM41 / Fold change vs veh, TAMM41 / RFU, KIAA1704 /// LOC100996395 / Fold change vs veh, KIAA1704 /// LOC100996395 / RFU, ING1 / Fold change vs veh, ING1 / RFU, TRMT61B / Fold change vs veh, TRMT61B / RFU, FUBP3 / Fold change vs veh, FUBP3 / RFU, TP53 / Fold change vs veh, TP53 / RFU, TNKS2 / Fold change vs veh, TNKS2 / RFU, ZFP14 / Fold change vs veh, ZFP14 / RFU, ACTR2 / Fold change vs veh, ACTR2 / RFU, PPP3R1 / Fold change vs veh, PPP3R1 / RFU, PIK3R1 / Fold change vs veh, PIK3R1 / RFU, HNRNPA1 / Fold change vs veh, HNRNPA1 / RFU, RNF170 / Fold change vs veh, RNF170 / RFU, ZNF28 / Fold change vs veh, ZNF28 / RFU, RNGTT / Fold change vs veh, RNGTT / RFU, OGT / Fold change vs veh, OGT / RFU, BRD1 / Fold change vs veh, BRD1 / RFU, MARS / Fold change vs veh, MARS / RFU, ZNF655 / Fold change vs veh, ZNF655 / RFU, FAHD1 / Fold change vs veh, FAHD1 / RFU, BDP1 / Fold change vs veh, BDP1 / RFU, LRRCC1 / Fold change vs veh, LRRCC1 / RFU, ARID1A / Fold change vs veh, ARID1A / RFU, ZNF146 / Fold change vs veh, ZNF146 / RFU, ZNF330 / Fold change vs veh, ZNF330 / RFU, GPN3 / Fold change vs veh, GPN3 / RFU, C9orf123 / Fold change vs veh, C9orf123 / RFU, N4BP2L2 / Fold change vs veh, N4BP2L2 / RFU, ARFIP1 / Fold change vs veh, ARFIP1 / RFU, FAM179B / Fold change vs veh, FAM179B / RFU, BCL10 / Fold change vs veh, BCL10 / RFU, UHRF1BP1L / Fold change vs veh, UHRF1BP1L / RFU, BET1 / Fold change vs veh, BET1 / RFU, CNOT2 / Fold change vs veh, CNOT2 / RFU, ZNF268 / Fold change vs veh, ZNF268 / Fold change vs veh, ZNF507 / RFU, DGCR2 / Fold change vs veh, DGCR2 / RFU, WDSUB1 / Fold change vs veh, WDSUB1 / Fold change vs veh, HSP90B1 /// MIR3652 / RFU, ADSS / Fold change vs veh, ADSS / RFU, GK / Fold change vs veh, GK / RFU, ZNF148 / Fold change vs veh, ZNF148 / RFU, TAF9 / Fold change vs veh, TAF9 / RFU, SLC1A5 / Fold change vs veh, SLC1A5 / RFU, SLMO2 / Fold change vs veh, SLMO2 / RFU, ABCC4 / Fold change vs veh, ABCC4 / RFU, LOC101060439 /// RAP1B / Fold change vs veh, LOC101060439 /// RAP1B / RFU, RFX7 / Fold change vs veh, RFX7 / RFU, GTPBP10 / Fold change vs veh, GTPBP10 / RFU, CNEP1R1 / Fold change vs veh, CNEP1R1 / RFU, BIVM-ERCC5 /// ERCC5 / Fold change vs veh, BIVM-ERCC5 /// ERCC5 / RFU, ILF3 / Fold change vs veh, ILF3 / RFU 11762660_at / Fold change /veh 11762660_at / RFU VCAN (11757783_s_at) / Fold change /veh VCAN (11757783_s_at) / RFU DDX43 (11728927_at) / Fold change /veh DDX43 (11728927_at) / RFU KRT8 (11758188_x_at) / Fold change /veh KRT8 (11758188_x_at) / RFU NKD1 (11759106_at) / Fold change /veh NKD1 (11759106_at) / RFU SRD5A1 (11742802_a_at) / Fold change /veh SRD5A1 (11742802_a_at) / RFU TPSAB1 /// TPSB2 (11721975_s_at) / Fold change /veh TPSAB1 /// TPSB2 (11721975_s_at) / RFU GSTM3 (11746129_a_at) / Fold change /veh GSTM3 (11746129_a_at) / RFU IL23R (11737362_x_at) / Fold change /veh IL23R (11737362_x_at) / RFU TMEM51 (11727254_a_at) / Fold change /veh TMEM51 (11727254_a_at) / RFU PIWIL2 (11732686_x_at) / Fold change /veh PIWIL2 (11732686_x_at) / RFU ORM1 (11744905_x_at) / Fold change /veh ORM1 (11744905_x_at) / RFU CCDC152 (11743942_at) / Fold change /veh CCDC152 (11743942_at) / RFU ECM1 (11717891_a_at) / Fold change /veh ECM1 (11717891_a_at) / RFU IL23R (11748794_a_at) / Fold change /veh IL23R (11748794_a_at) / RFU TNFAIP8L3 (11732012_x_at) / Fold change /veh TNFAIP8L3 (11732012_x_at) / RFU MBOAT4 (11741988_at) / Fold change /veh MBOAT4 (11741988_at) / RFU 11764193_at / Fold change /veh 11764193_at / RFU TMEM53 (11763286_at) / Fold change /veh TMEM53 (11763286_at) / RFU MAGEB2 (11727129_at) / Fold change /veh MAGEB2 (11727129_at) / RFU TMEM200A (11744735_a_at) / Fold change /veh TMEM200A (11744735_a_at) / RFU CCDC152 (11751479_a_at) / Fold change /veh CCDC152 (11751479_a_at) / RFU FAM211A (11726209_a_at) / Fold change /veh FAM211A (11726209_a_at) / RFU RGS16 (11746705_a_at) / Fold change /veh RGS16 (11746705_a_at) / RFU VCAN (11755009_s_at) / Fold change /veh VCAN (11755009_s_at) / RFU RHOB (11743442_s_at) / Fold change /veh RHOB (11743442_s_at) / RFU RGS16 (11720943_a_at) / Fold change /veh RGS16 (11720943_a_at) / RFU RGS16 (11720944_at) / Fold change /veh RGS16 (11720944_at) / RFU, VPS4B / Fold change vs veh, VPS4B / RFU, CREB1 / Fold change vs veh, CREB1 / RFU, DNAJC13 / Fold change vs veh, DNAJC13 / RFU, GNAQ / Fold change vs veh, GNAQ / RFU, CDK5R1 / Fold change vs veh, CDK5R1 / RFU, ZRANB3 / Fold change vs veh, ZRANB3 / RFU, CUL4A / Fold change vs veh, CUL4A / RFU, CCNY / Fold change vs veh, CCNY / RFU, UFL1 / Fold change vs veh, UFL1 / RFU, COG3 / Fold change vs veh, COG3 / RFU, DIAPH2 / Fold change vs veh, DIAPH2 / RFU, SKA2 / Fold change vs veh, SKA2 / RFU, AFF3 / Fold change vs veh, AFF3 / RFU, LMF1 / Fold change vs veh, LMF1 / RFU, IPO11 / Fold change vs veh, IPO11 / RFU, DFFB / Fold change vs veh, DFFB / RFU, FOXP1 / Fold change vs veh, FOXP1 / RFU, CARD8 / Fold change vs veh, CARD8 / RFU, STRN3 / Fold change vs veh, STRN3 / RFU, ADK / Fold change vs veh, ADK / RFU, RASSF2 / Fold change vs veh, RASSF2 / RFU, WIPF1 / Fold change vs veh, WIPF1 / RFU, LARP1B / Fold change vs veh, LARP1B / RFU, RASA1 / Fold change vs veh, RASA1 / RFU, RB1 / Fold change vs veh, RB1 / RFU, PPFIA1 / Fold change vs veh, PPFIA1 / RFU, MAT2A / Fold change vs veh, MAT2A / RFU, CCT5 / Fold change vs veh, CCT5 / RFU, WDR92 / Fold change vs veh, WDR92 / RFU, CUX1 / Fold change vs veh, CUX1 / RFU, TTC7A / Fold change vs veh, TTC7A / RFU, TMEM135 / Fold change vs veh, TMEM135 / RFU, DEPTOR / Fold change vs veh, DEPTOR / RFU, CPM / Fold change vs veh, CPM / RFU, DNAJB6 / Fold change vs veh, DNAJB6 / RFU, CACNA2D3 / Fold change vs veh, CACNA2D3 / RFU, DTX4 / Fold change vs veh, DTX4 / RFU, TFCP2 / Fold change vs veh, TFCP2 / RFU, GMCL1 /// GMCL1P1 / Fold change vs veh, GMCL1 /// GMCL1P1 / RFU, AEBP2 / Fold change vs veh, AEBP2 / RFU, SNHG1 /// SNORD22 /// SNORD25 /// SNORD26 /// SNORD27 /// SNORD28 /// SNORD29 /// SNORD31 / Fold change vs veh, SNHG1 /// SNORD22 /// SNORD25 /// SNORD26 /// SNORD27 /// SNORD28 /// SNORD29 /// SNORD31 / Fold change (Aza/veh), C12orf56 (ProbeSet 11735607_a_at) / Fold change (ACY-1035/veh), C12orf56 (ProbeSet 11735607_a_at) / Fold change (Aza/veh), FGFR1OP (ProbeSet 11751329_s_at) / Fold change (ACY-1035/veh), FGFR1OP (ProbeSet 11751329_s_at) / Fold change (Aza/veh), VPS36 (ProbeSet 11739960_a_at) / Fold change (ACY-1035/veh), VPS36 (ProbeSet 11739960_a_at) / RFU SYPL1 (11715823_x_at) / Fold change /veh SYPL1 (11715823_x_at) / RFU IGFBP7 (11715501_s_at) / Fold change /veh IGFBP7 (11715501_s_at) / RFU REEP3 (11722064_at) / Fold change /veh REEP3 (11722064_at) / RFU IGLL1 (11728026_x_at) / Fold change /veh IGLL1 (11728026_x_at): dose or concentration left out as unconfirmed
Conditions: ProbeSet 11749551_a_at; LIST B

Question: How did the “Fold change vs veh, RNGTT” value turn out when `Nc1ccc(-c2cccs2)cc1NC(=O)c1ccc2c(c1)cc(C1CC1)n2CCN1CCOCC1` [ACY-1035] was run?
Answer: 0.96
